Measured values reported in patent US8716242B2, “β-hairpin peptidomimetics” (priority 2009, dated 2014).
Numbered stars: 1 amine (or outer) side, 2 acyl side, 3 side chain; on linkers, the order of the positions; unused ones are H or OH. Bridge positions count the residues as written; N and C are the ends. Square brackets hold non-standard residues; d marks the D form. Side chains are listed from the residue outwards. Peptide text beside a SMILES is read from it. * marks the point of attachment. γGlu = O=C(O)[C@H](CCC(=O)[*:2])N[*:1]; Palmitoyl = CCCCCCCCCCCCCCCC(=O)*; Lauroyl = CCCCCCCCCCCC(=O)*; Dab = NCC[C@H](N)C(=O)O

Assay: in vivo
Set-up: species or system male CD-1 mice
Settings: for AUC0-∞ dcor. / Cmax dcor.: mouse
Method: 2.7. Pharmacokinetic Study (PK)
Pharmacokinetic study after intravenous (i.v.) and subcutaneous (s.c.) administration was performed for the compounds of Ex. 17, Ex. 20, Ex. 25, Ex. 26, Ex. 28, and Ex. 29. […] The compounds of Ex. 17, Ex. 25, Ex. 26, Ex. 28, and Ex. 29 were administered i.v. and s.c. as a cassette whereas for the compound of Ex. 20a single i.v. and s.c. administration was accomplished.
30 grams (±20%) male CD-1 mice obtained from Janvier, France, were used in the study testing the cassette compounds. The vehicle, phosphate buffered saline containing 5% DMSO, was added to give a final concentration of 0.5 mg/mL of the compounds (i.v. route and s.c. route). The volume was 2 mL/kg i.v. and 10 mL/kg s.c. and the cassette compounds were injected to give a final intravenous dose of 1 mg/kg and an subcutaneous dose of 5 mg/kg. Approximately 500 μL of blood were removed from the opened heart at predetermined time intervals (5, 15, 30 min and 1, 2, 4, 8 and 12 hours for the i.v. study and 5, 15, 30 min and 1, 2, 4, 8, 12 and 24 hours for the s.c. study) and added to heparinized tubes. Plasma was removed from pelleted cells upon centrifugation and frozen at −80° C. prior to HPLC-MS analysis. For the compound of Ex. 20 30 grams (±20%) male CD-1 mice obtained from Charles River Laboratories Deutschland GmbH were used. The vehicle, phosphate buffered saline, was added to give a final concentration of 0.2 mg/mL of the compound (i.v. route) and 1 mg/mL (s.c. route). The volume was 5 mL/kg i.v. and s.c. and the compound was injected to give a final intravenous dose of 1 mg/kg and an subcutaneous dose of 5 mg/kg. Approximately 300-400 μL of blood was removed under light isoflurane anesthesia by cardiac puncture at predetermined time intervals (5, 15, 30 min and 1, 2, 3, 4, 6, 12 hours for the i.v. study and 15, min and 1, 2, 4, 6, 8, 12 and 24 hours for the s.c. study) and added to heparinized tubes. Plasma was removed from pelleted cells upon centrifugation and frozen at −80° C. prior to HPLC-MS analysis.
Preparation of the Plasma Calibration Samples
“Blank” mouse plasma from untreated animals was used. Aliquots of plasma of 0.2 mL each were spiked with 50 ng of propranolol (Internal Standard, IS), (sample preparation by solid phase extraction on OASIS® HLB cartridges [Waters]) and with known amounts of Ex. 20 in order to obtain 9 plasma calibration samples in the range 10-5000 nM. The OASIS® HLB cartridges were conditioned with 1 mL of methanol and then with 1 mL of 1% NH3 in water. Samples were then diluted with 700 μL of 1% NH3 in water and loaded. The plate was washed with 1 mL of methanol/1% NH3 in water 5/95 (v/v). Elution was performed using 1 mL of 0.1% TFA in methanol.
The plate containing eluates was introduced into the concentrator system and taken to dryness. The residues were dissolved in 100 μL of formic acid 0.1%/acetonitrile, 95/5 (v/v) and analysed in the HPLC/MS on a reverse phase analytical column (Jupiter C18, 50×2.0 mm, 5 μm, Phenomenex), using gradient elution (mobile phases A: 0.1% formic acid in water, B: acetonitrile; from 5% B to 100% B in 2 min.).
Preparation of Plasma Samples
Samples coming from animal treatments were pooled in order to obtain an appropriate volume for the extraction. If the total volume obtained was less than 0.2 mL the appropriate amount of “blank” mouse plasma was added in order to keep the matrix identical to the calibration curve. Samples were than spiked with IS and processed as described for the calibration curve.
Pharmacokinetic Evaluation
In order to perform PK analysis pooled plasma data (n=3 mice) was used. PK parameters were calculated by WinNonLin™ software version 5.2.1 (Pharsight—A Certara™ Company, Mountain View, Calif. 94041 USA) using non-compartmental analysis with a linear up/log down trapezoidal calculation method. For the terminal elimination phase at least 3 time points and a correlation coefficient greater than 0.85 was used. […]

SMILES | bioavailability (male, CD-1, mouse) [%] | AUC(0-inf) (male, CD-1, mouse, iv, 1 mg/kg) [ng·h/mL] | Cmax (male, CD-1, mouse, iv, 1 mg/kg) [ng/mL] | Tmax (male, CD-1, mouse, iv, 1 mg/kg) [h] | half-life (male, CD-1, mouse, iv, 1 mg/kg) [h] | level at 0.083 h (male, CD-1, mouse, iv, 1 mg/kg) [ng/mL] | level at 0.25 h (male, CD-1, mouse, iv, 1 mg/kg) [ng/mL] | level at 0.5 h (male, CD-1, mouse, iv, 1 mg/kg) [ng/mL] | level at 1 h (male, CD-1, mouse, iv, 1 mg/kg) [ng/mL] | level at 2 h (male, CD-1, mouse, iv, 1 mg/kg) [ng/mL] | level at 4 h (male, CD-1, mouse, iv, 1 mg/kg) [ng/mL] | level at 12 h (male, CD-1, mouse, iv, 1 mg/kg) [ng/mL] | AUC(0-inf) (male, CD-1, mouse, sc, 5 mg/kg) [ng·h/mL] | Cmax (male, CD-1, mouse, sc, 5 mg/kg) [ng/mL] | Tmax (male, CD-1, mouse, sc, 5 mg/kg) [h] | half-life (male, CD-1, mouse, sc, 5 mg/kg) [h] | level at 0.5 h (male, CD-1, mouse, sc, 5 mg/kg) [ng/mL] | level at 1 h (male, CD-1, mouse, sc, 5 mg/kg) [ng/mL] | level at 2 h (male, CD-1, mouse, sc, 5 mg/kg) [ng/mL] | level at 4 h (male, CD-1, mouse, sc, 5 mg/kg) [ng/mL] | also measured
CCCCCCCCCCCCCCCC(=O)N[C@@H](CCC(=O)NCCCC[C@@H]1NC(=O)[C@H](Cc2ccc(O)cc2)NC(=O)[C@@H]2CSSC[C@H](NC(=O)[C@H](Cc3ccc(O)cc3)NC(=O)[C@H](Cc3c[nH]cn3)NC(=O)[C@H](Cc3ccc(O)cc3)NC(=O)[C@@H]3CCCN3C(=O)[C@H]3CCCN3C(=O)[C@H](CCCCN)NC1=O)C(=O)N[C@@H](CO)C(=O)N[C@@H](C)C(=O)N1CCC[C@@H]1C(=O)N[C@@H](CCN)C(=O)N[C@@H](CCCNC(=N)N)C(=O)N[C@@H](Cc1ccc(O)cc1)C(=O)N2)C(=O)O [Ex. 29] (cyclo(YHYCSA[dP][Dab]RYCYK([γGlu-Palmitoyl])K[dP]P); disulfide 4-11) | 151 | 2940 | 2320 | 0.1 | 3.6 | 2320 | 1820 | 1730 | 1500 | 87 | 114 | 16 | 22200 | 1600 | 8 | 4.7 | 41 | 137 | 1050 | 958 | level at 8 h (male, CD-1, mouse, iv, 1 mg/kg): 35 ng/mL; level at 0.25 h (male, CD-1, mouse, sc, 5 mg/kg): 9 ng/mL; level at 8 h (male, CD-1, mouse, sc, 5 mg/kg): 1600 ng/mL; level at 12 h (male, CD-1, mouse, sc, 5 mg/kg): 1430 ng/mL; level at 24 h (male, CD-1, mouse, sc, 5 mg/kg): 175 ng/mL; AUC0-∞ dcor. (iv, 1 mg/kg): 2945.0 kg·ng·h/mg/mL; Cmax dcor. (iv, 1 mg/kg): 2317.0 kg·ng/mg/mL; AUC0-∞ dcor. (sc, 5 mg/kg): 4436.2 kg·ng·h/mg/mL; Cmax dcor. (sc, 5 mg/kg): 320.6 kg·ng/mg/mL
CCCCCCCCCCCC(=O)N[C@@H](CCC(=O)NCCCC[C@@H]1NC(=O)[C@H](Cc2ccc(O)cc2)NC(=O)[C@@H]2CSSC[C@H](NC(=O)[C@H](Cc3ccc(O)cc3)NC(=O)[C@H](Cc3c[nH]cn3)NC(=O)[C@H](Cc3ccc(O)cc3)NC(=O)[C@@H]3CCCN3C(=O)[C@H]3CCCN3C(=O)[C@H](CCCCN)NC1=O)C(=O)N[C@@H](CO)C(=O)N[C@@H](C)C(=O)N1CCC[C@@H]1C(=O)N[C@@H](CCN)C(=O)N[C@@H](CCCNC(=N)N)C(=O)N[C@@H](Cc1ccc(O)cc1)C(=O)N2)C(=O)O [Ex. 25] (cyclo(YHYCSA[dP][Dab]RYCYK([γGlu-Lauroyl])K[dP]P); disulfide 4-11) | 142 | 3480 | 2970 | 0.1 | 2.5 | 2970 | 2190 | 1990 | 1600 | 160 | 180 | 16 | 24700 | 2190 | 2 | 4.7 | 205 | 517 | 2190 | 1640 | level at 8 h (male, CD-1, mouse, iv, 1 mg/kg): 18 ng/mL; level at 0.25 h (male, CD-1, mouse, sc, 5 mg/kg): 44 ng/mL; level at 8 h (male, CD-1, mouse, sc, 5 mg/kg): 1890 ng/mL; level at 12 h (male, CD-1, mouse, sc, 5 mg/kg): 1210 ng/mL; level at 24 h (male, CD-1, mouse, sc, 5 mg/kg): 108 ng/mL; AUC0-∞ dcor. (iv, 1 mg/kg): 3480.0 kg·ng·h/mg/mL; Cmax dcor. (iv, 1 mg/kg): 2970.0 kg·ng/mg/mL; AUC0-∞ dcor. (sc, 5 mg/kg): 4944.7 kg·ng·h/mg/mL; Cmax dcor. (sc, 5 mg/kg): 437.4 kg·ng/mg/mL
CCCCCCCCCCCCCCCC(=O)NCCCC[C@@H]1NC(=O)[C@H](Cc2ccc(O)cc2)NC(=O)[C@@H]2CSSC[C@H](NC(=O)[C@H](Cc3ccc(O)cc3)NC(=O)[C@H](Cc3c[nH]cn3)NC(=O)[C@H](Cc3ccc(O)cc3)NC(=O)[C@@H]3CCCN3C(=O)[C@H]3CCCN3C(=O)[C@H](CCCCN)NC1=O)C(=O)N[C@@H](CO)C(=O)N[C@@H](C)C(=O)N1CCC[C@@H]1C(=O)N[C@@H](CCN)C(=O)N[C@@H](CCCNC(=N)N)C(=O)N[C@@H](Cc1ccc(O)cc1)C(=O)N2 [Ex. 20] (cyclo(YHYCSA[dP][Dab]RYCYK(Palmitoyl)K[dP]P); disulfide 4-11) | 139 | 5500 | 2210 | 0.5 | 2 | 777 | 1520 | 2210 | 1380 | 992 | 486 | 13 | 38200 | 3040 | 12 | 2.9 | 70 | 342 | 868 | 1700 | level at 3 h (male, CD-1, mouse, iv, 1 mg/kg): 638 ng/mL; level at 6 h (male, CD-1, mouse, iv, 1 mg/kg): 234 ng/mL; level at 6 h (male, CD-1, mouse, sc, 5 mg/kg): 2800 ng/mL; level at 8 h (male, CD-1, mouse, sc, 5 mg/kg): 2860 ng/mL; level at 12 h (male, CD-1, mouse, sc, 5 mg/kg): 3040 ng/mL; level at 24 h (male, CD-1, mouse, sc, 5 mg/kg): 179 ng/mL; AUC0-∞ dcor. (iv, 1 mg/kg): 5504.8 kg·ng·h/mg/mL; Cmax dcor. (iv, 1 mg/kg): 2210.0 kg·ng/mg/mL; AUC0-∞ dcor. (sc, 5 mg/kg): 7630.8 kg·ng·h/mg/mL; Cmax dcor. (sc, 5 mg/kg): 608.7 kg·ng/mg/mL
CCCCCCCCCCCC(=O)NCCCC[C@@H]1NC(=O)[C@H](Cc2ccc(O)cc2)NC(=O)[C@@H]2CSSC[C@H](NC(=O)[C@H](C)NC(=O)[C@H](Cc3c[nH]cn3)NC(=O)[C@H](Cc3ccc(O)cc3)NC(=O)[C@@H]3CCCN3C(=O)[C@H]3CCCN3C(=O)[C@H](CCCCN)NC1=O)C(=O)N[C@@H](CCCNC(=N)N)C(=O)N[C@@H](C)C(=O)N1CCC[C@@H]1C(=O)N[C@@H](CCN)C(=O)N[C@@H](CCCNC(=N)N)C(=O)N[C@@H](Cc1ccc(O)cc1)C(=O)N2 [Ex. 17] (cyclo(YHACRA[dP][Dab]RYCYK(Lauroyl)K[dP]P); disulfide 4-11) | 114 | 2950 | 2640 | 0.1 | 2 | 2640 | 2030 | 1560 | 1290 | 178 | 141 | 8 | 16800 | 1750 | 2 | 4.3 | 450 | 874 | 1750 | 1410 | level at 8 h (male, CD-1, mouse, iv, 1 mg/kg): 15 ng/mL; level at 0.25 h (male, CD-1, mouse, sc, 5 mg/kg): 140 ng/mL; level at 8 h (male, CD-1, mouse, sc, 5 mg/kg): 1240 ng/mL; level at 12 h (male, CD-1, mouse, sc, 5 mg/kg): 567 ng/mL; level at 24 h (male, CD-1, mouse, sc, 5 mg/kg): 65 ng/mL; AUC0-∞ dcor. (iv, 1 mg/kg): 2950.8 kg·ng·h/mg/mL; Cmax dcor. (iv, 1 mg/kg): 2640.0 kg·ng/mg/mL; AUC0-∞ dcor. (sc, 5 mg/kg): 3357.9 kg·ng·h/mg/mL; Cmax dcor. (sc, 5 mg/kg): 350.6 kg·ng/mg/mL
